Experiments:
[1] = system: H. armigera moths; test: two-choice olfactometer, moths entering the test chamber; type: in vivo, Helicoverpa armigera; details: for attractiveness in the olfactometer: blend complexity studies, FIG. 8; for optimum concentration in the olfactometer: formulated in Sirene base, FIG. 6
Text: The design of our olfactometer (FIG. 1) has been described by Gregg et al. (1998) and is similar to that of Beerwinkle et al. (1996). The olfactometer is a two-choice system in which moths choose between two airstreams. One carries either a bouquet (about 200 g) of freshly cut plant stems with their bases in a flask of water, or plant volatiles formulated and presented as described below (the test chamber). The other carries clean air (the control chamber). Each run normally uses 50 moths, and runs are normally replicated three times for each sex and each attractant. Thus, olfactometer data points are usually each based on the responses of 150 moths. Moths are laboratory-reared, unmated and aged 1-4 (usually 2-3) days. We use two criteria for attractiveness, the test % (percentage of the total 150 moths which enter the test chamber), and success rate (number entering the test chamber relative to those entering the control chamber). The former is our primary criterion, and is the one presented here. Data are analysed using Zar's procedure for multiple comparison of proportions. With N=150, the minimum significant difference between two percentages using-this procedure is about 8%.
For testing single chemicals in the olfactometer early in the project, we dissolve the synthetic chemical in canola oil at a concentration of 10%. 200 μl of this is absorbed into a cotton dental wick which is placed in the test airstream of the olfactometer. These lures are changed every 2 h during olfactometer runs. Later tests of single chemicals to determine the effects of varying concentration are done using Sirene formulations, as discussed below.
For testing chemical blends in the olfactometer and in field trapping experiments, we are formulating in Sirene, a mixture of anti-oxidants and UV protectants which was developed by Novartis for attract-and-kill of several moth species using pheromones, and for which IPM Technologies Ltd have worldwide marketing and development rights. Chemicals are mixed into Sirene in the barrel of a syringe using a slow (4 rpm) broad-bladed propeller, which stirs the highly viscous material for 3 h. Formulations are then stored at 40 C in the sealed syringe for periods of up to 2 weeks. Sirene formulations are tested in the olfactometer by placing about 100 mg on a horizontal square (1×1 cm) of plastic (Corflute®), which is then placed on a pin in the test airstream of the olfactometer. For field testing, the plastic square carrying the formulation is held horizontally under the lid of the AgriSense trap, in the same position that a pheromone lure would be, using a screw.

[2] = system: moths; test: laboratory feeding studies with ingestible formulations; type: in vivo; details: 1% toxicant in ingestible formulations
Protocol: To determine whether moths will feed on the ingestible formulations, and whether they die as a result, we place a single moth in a 1 litre plastic container which has 50 μl of the formulation as a single droplet in a beer bottle cap, on the bottom of the container. In some experiments laboratory-reared moths are used in a constant 25° C. reverse-cycle system. In others natural cycle laboratory moths are used in containers placed outdoors. Moths are observed at regular intervals and dead ones removed for dissection. At the end of the scotophase all surviving moths are removed and after a further hour are dissected.
In these studies small droplets (50-100 μl) were placed in a 1 litre container with the moths, so they spent the night in close proximity (within 10 cm) of the droplet.

[3] = system: Lab reared female moths; test: field wind tunnel trials; type: in vivo; details: trial 8, Yanco, 0.5% methomyl
Protocol: These are used to observe behavioural responses of moths around lures, and to record kill rates of different blends and formulations, in semi-natural conditions. Clear polythene is stretched around a series of steel hoops 1.2 m in diameter which are suspended from a horizontal pipe Flywire is placed over each end. The wind tunnels are hung just above ground level and oriented parallel to the prevailing wind. Lures (3 bottle tops containing 100-200 μl of the attractant under test) are placed on a plastic dinner plate in the upwind end and 20-50 moths are released into the downwind end about 1 h before sunset. Lab reared female moths produced under natural photoperiod are used. Behavioural responses are observed using night vision glasses. In the morning both live and dead moths are collected and dissected to determine from the presence of green dye whether they have fed on the lure.

[4] = system: Helicoverpa spp.; test: field trapping trials with AgriSense traps; type: in vivo; details: for Peak catch % of phero / Whole experiment Lure N: Downs
Text: For field tests of the attractiveness of different blends we use AgriSense pheromone traps of the canister type (Gregg and Wilson 1991). Traps are usually cleared three times weekly, and the catch sorted. Moths are sexed and the females dissected to determine mated status. We normally test 5 formulations at a time, replicated 4 times, so there are 4 rows of 5 traps, each row containing one replicate of each formulation. Traps are spaced 50 m apart and are rotated, within a row, between catch intervals. Experiments are analysed as Latin squares. Field trials at Cecil Plains were conducted in soybeans, cotton, chickpea, wheat, fallow land and sunflower, and at Kununurra and China, in cotton.
These trials have been done at different times, and in different areas, different crops and different weather conditions. In some cases the conditions have been less than optimal. Examples include the Twynam 1, 2 and 3 trials in the Ord River, where night temperatures were often too low for moth activity, and the last two Wamara trials in 2000 where moth numbers in the district were extremely low. Because of these differences it is not possible to directly compare the numbers of moths caught between trials. We have therefore expressed the results as a percentage of the pheromone traps run in the same experiments. This percentage has been calculated on the catch interval with the highest volatile catches. We do this because the residual life of some volatiles is short and some formulations probably lose attractiveness during the course of the trials, whereas the pheromone release rate remains relatively constant. PBE1 was also included in almost all of these trials, as a standard plant volatile blend. The unweighted average catch of PBE1, across all trials, was 5.8% of the pheromone catch. Though PBE1 and some other volatile formulations occasionally caught up to 15-33% of the corresponding pheromone catch, when this occurred the overall numbers of moths were low, so the results are statistically unreliable.

[5] = single chemicals in Sirene formulations
[6] = single chemicals, 10% in canola oil, females, FIG. 5
[7] = Wamara3 Soybean, 20 Feb-12 Mar 99

## OCCc1ccccc1 [2-phenylethanol]
[1]; 2% concentration in Sirene
  test %: 26.4%
[1]
  attractiveness in the olfactometer: significantly attractive
[1]; in canola oil
  test %: 29%
[1]; [5]
  attraction in the olfactometer (statistical significance): confirmed
[1]; [6]
  attraction in the olfactometer (statistical significance): statistically significant levels of attraction

## CC1=CCC2C(C1)C2(C)C (stereo not shown) [Blend 3-carene, 3-carene]
[1]; [6]
  attraction in the olfactometer (statistical significance): statistically significant levels of attraction

## CC/C=C\CCOC(C)=O [Z-3-hexenyl acetate]
[1]; [6]
  attraction in the olfactometer (statistical significance): statistically significant levels of attraction

## CC/C=C\CCOC(=O)c1ccccc1O [Z-3-hexenyl salicylate]
[1]; 2% concentration in Sirene
  test %: 26.7%
[1]
  attractiveness in the olfactometer: significantly attractive on its own
[1]; in canola oil
  test %: 33.8%
[1]; [5]
  attraction in the olfactometer (statistical significance): confirmed
[1]; [6]
  attraction in the olfactometer (statistical significance): statistically significant levels of attraction

## OCc1ccccc1 [benzyl alcohol]
[1]
  optimum concentration in the olfactometer: about 1%
[1]; [5]
  attraction in the olfactometer (statistical significance): confirmed
[1]; [6]
  attraction in the olfactometer (statistical significance): statistically significant levels of attraction

## CNC(=O)Oc1cccc2ccccc12 [carbaryl]
[2]
  % killed, summary of trials: 69-94%

## CC(C)=CCC/C(C)=C/CO [geraniol]
[1]; [6]
  attraction in the olfactometer (statistical significance): statistically significant levels of attraction

## C=C(C)[C@H]1CC=C(C)CC1 [limonene]
[1]
  attractiveness in the olfactometer: statistically significant
[1]; [6]
  attraction in the olfactometer (statistical significance): statistically significant levels of attraction

## CNC(=O)ON=C(C)SC [methomyl]
[2]
  % killed, summary of trials: killed all moths

## C=CCc1ccc(OC)c(OC)c1 [methyl eugenol]
[1]
  optimum concentration in the olfactometer: about 2%

## O=CCc1ccccc1 [phenylacetaldehyde]
[1]
  attractiveness in the olfactometer: significantly attractive
  optimum concentration in the olfactometer: about 1%
[1]; [5]
  attraction in the olfactometer (statistical significance): confirmed
[1]; [6]
  attraction in the olfactometer (statistical significance): statistically significant levels of attraction
[3]; attractant at 2%
  % killed: 33.3 b %
  N killed: 14
[3]; attractant at 8%
  % killed: 25.6 b %
  N killed: 11
[4]; Wamara1Soybean, 1-30 Jan 99
  Peak catch % of phero: 0.4%
  Whole experiment Lure N: 10
[4]; Wamara2 Soybean, 13-19 Feb 99
  Peak catch % of phero: 1.1%
  Whole experiment Lure N: 5
[4]; [7]
  Peak catch % of phero: 3.1%
  Whole experiment Lure N: 8
[4]; field trapping trials
  catch in field traps, in words: caught very few moths
[4]; third direct comparison with PBE1
  catch relative to the PBE1 catch: less than a quarter

Reference: patent publication US20050042316A1, “Attractants for moths” (priority 2001, published 2005)
